From patent US20010011137A1, “Use of triphenylmethyl-1,2,3-triazoles” (priority 1996, published 2001)

melting point: 162 °C
SMILES: Clc1ccccc1C(c1ccccc1)(c1ccccc1)n1ccnn1 [Example 10, 1-(2-chlorotrityl)-1H-1,2,3-triazole]
